Values quoted from earlier work in patent US20120142730A1 (priority 2010, published 2012).

Conditions: Noseworthy, 2000; cited from earlier work

## CN(C(=O)c1c(O)c2ccccc2n(C)c1=O)c1ccccc1 [roquinimex]
  Safety concerns previously seen: serositis, cardiovascular events and thrombosis
